Results published in patent US8198307B2, “Imidazole derivatives having aryl piperidine substituent, method for preparation thereof and pharmaceutical compositions containing same” (Korea Research Institute of Chemical Technology, priority 2007, dated 2012).

These molecules were tested against T1, MCH R1 (melanine-concentrating hormone receptor-1) (Homo sapiens, UniProt Q99705) (assay: Inhibitory effects on MCH R1 binding (Eu-MCH time-resolved fluorescence binding assay)). Conditions: concentration inhibiting the binding of MCH (Eu-MCH, 2 nM) to MCH R1 by 50% in vitro; TRF readout; test range 1 nM to 10 μM; read-out: IC50.
T1 construct: purchased Euroscreen, Gosselies, Belgium
T1 sequence (Q99705 whole entry, species assumed): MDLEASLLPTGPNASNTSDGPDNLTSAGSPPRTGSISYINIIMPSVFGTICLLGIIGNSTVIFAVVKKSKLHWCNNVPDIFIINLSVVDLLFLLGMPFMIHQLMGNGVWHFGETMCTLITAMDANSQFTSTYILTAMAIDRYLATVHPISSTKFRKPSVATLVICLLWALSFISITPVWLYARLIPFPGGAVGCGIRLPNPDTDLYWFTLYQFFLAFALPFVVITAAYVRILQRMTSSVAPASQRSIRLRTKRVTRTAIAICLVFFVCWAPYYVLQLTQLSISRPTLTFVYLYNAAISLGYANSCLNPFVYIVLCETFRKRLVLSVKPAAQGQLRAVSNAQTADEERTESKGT
In short: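 Receptor membranes were incubated 90 min at room temperature with 2 nM Eu-MCH and test compound (1 nM–10 μM final) in 25 mM HEPES pH 7.4, 5 mM MgCl2, 1 mM CaCl2, 0.5% BSA, then filter-washed. Nonspecific binding was defined with 0.5 μM MCH. Time-resolved fluorescence (ex 340/em 615 nm) gave percent inhibition of specific binding.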

| SMILES | IC50 [nM] |
| --- | --- |
| CC(=O)Nc1cccc(C2CCN(CCCn3c(-c4cccnc4)nc4cc([N+](=O)[O-])ccc43)CC2)c1 [Example 117, 5-nitro-2-(pyridin-3-yl)-1-{3-[4-(3-acetamidophenyl)piperidin-1-yl]propyl}-1H-benzimidazole] | 3 |
| CC(=O)Nc1cccc(C2CCN(CCCn3c(-c4ccc(Br)o4)nc4cc(Cl)ccc43)CC2)c1 [Example 118, 5-chloro-2-(5-bromofuran-2-yl)-1-{3-[4-(3-acetamidophenyl)piperidin-1-yl]propyl}-1H-benzimidazole] | 20 |
| CC(=O)Nc1cccc(C2CCN(CCCn3c(-c4cscn4)nc4ccccc43)CC2)c1 [Example 122, 2-(thiazol-4-yl)-1-{3-[4-(3-acetamidophenyl)piperidin-1-yl]propyl}-1H-benzimidazole] | 306 |
| CC(=O)Nc1cccc(C2CCN(CCCn3c(-c4ocnc4C)nc4ccccc43)CC2)c1 [Example 123, 2-(4-methyloxazol-5-yl)-1-{3-[4-(3-acetamidophenyl)piperidin-1-yl]propyl}-1H-benzimidazole] | 3 |
| CC(=O)Nc1cccc(C2CCN(CCCn3c(Cc4ccccn4)nc4ccccc43)CC2)c1 [Example 125, 2-(pyridin-2-ylmethyl)-1-{3-[4-(3-acetamidophenyl)piperidin-1-yl]propyl}-1H-benzimidazole] | 2 |
| CC(=O)Nc1cccc(C2CCN(CCCn3c(Cc4cccnc4)nc4ccccc43)CC2)c1 [Example 126, 2-(pyridin-3-ylmethyl)-1-{3-[4-(3-acetamidophenyl)piperidin-1-yl]propyl}-1H-benzimidazole] | 47 |
| CC(=O)Nc1cccc(C2CCN(CCCn3c(CCc4cccnc4)nc4ccccc43)CC2)c1 [Example 127, 2-[2-(pyridin-3-yl)ethyl]-1-{3-[4-(3-acetamidophenyl)piperidin-1-yl]propyl}-1H-benzimidazole] | 1 |

The remaining lines, values ahead:

| IC50 [nM] | SMILES |
| --- | --- |
| 249 | COc1ccc2c(c1)nc(-c1ccco1)n2CCCN1CCC(c2cccc(NC(C)=O)c2)CC1 [Example 119, 2-(furan-2-yl)-5-methoxy-1-{3-[4-(3-acetamidophenyl)piperidin-1-yl]propyl}-1H-benzimidazole] |
| 1 | CC(=O)Nc1cccc(C2CCN(CCCn3c(-c4ccsc4)nc4cc(C)ccc43)CC2)c1 [Example 120, 5-methyl-2-(thiophen-3-yl)-1-{3-[4-(3-acetamidophenyl)piperidin-1-yl]propyl}-1H-benzimidazole] |
| 5 | CC(=O)Nc1cccc(C2CCN(CCCn3c(-c4cccn4C)nc4cc(C)c(C)cc43)CC2)c1 [Example 121, 5,6-dimethyl-2-(1-methylpyrrol-2-yl)-1-{3-[4-(3-acetamidophenyl)piperidin-1-yl]propyl}-1H-benzimidazole] |
